Values of other authors as cited in patent publication US20240408074A1, “METHODS FOR THE TREATMENT AND PREVENTION OF NON-VIRAL TICK-BORNE DISEASES AND SYMPTOMS THEREOF OF” (60 DEGREES PHARMACEUTICALS LLC, priority 2023, published 2024).

What was measured:
Babesia parasites = conditions: 2 h; formation of large vacuoles; cited from earlier work
[1] = tested on: Trypanosome brucei blood stage forms; conditions: exposure for 90 minutes; cited from earlier work
Leptospira = conditions: exposure for as little as 30 min; cited from earlier work
P. falciparum [2] = conditions: 250 mg/day, cited from earlier work
B. rodhaini = conditions: cited from earlier work
[3] = 600 mg over three days then 200 mg weekly for up to one year; reversible, not clinically significant; cited from earlier work
Plasmodium vivax = conditions: 400 mg/day for three days, cited from earlier work
Plasmodium falciparum = conditions: 600 mg loading dose then 200 mg; parasite load three days after last dose; all control subjects developed parasitemia; cited from earlier work
Trypanosoma brucei = conditions: extracellular blood stage forms; cited from earlier work
Leishmania major = conditions: intracellular amastigote forms; cited from earlier work
[4] = tested on: free-living gram-negative bacteria and free-living gram-positive bacteria; conditions: gram-negative versus gram-positive; cited from earlier work
P. falciparum [5] = conditions: in vivo; cited from earlier work
B. microti = conditions: one patient; prior rituximab; tafenoquine at approved malaria prevention dose as monotherapy for six weeks; cited from earlier work
[6] = tested on: P. falciparum gametocytes; conditions: Example 5; single dose of primaquine combined with dihydroartemisinin/piperaquine, or dihydroartemisinin-piperaquine alone; cited from earlier work
[7] = immunocompromised SCID mice, single dose of 20 mg/kg

## OO [hydrogen peroxide]
Babesia parasites
  concentration that kills Babesia parasites in vitro: 100 µM
[1]
  concentration that kills blood stage forms: approximately 140 microM
Leptospira
  concentration that killed various serovars: < 180 µM

## CC[C@H]1OC(=O)[C@H](C)[C@@H](O[C@H]2C[C@@](C)(OC)[C@@H](O)[C@H](C)O2)[C@H](C)[C@@H](O[C@@H]2O[C@H](C)C[C@H](N(C)C)[C@H]2O)[C@](C)(O)C[C@@H](C)CN(C)[C@H](C)[C@@H](O)[C@]1(C)O [Azithromycin]
P. falciparum [2]; non-immune or malaria-naïve (Taylor)
  Protective Efficacy (%) Relative to Placebo, PF/Non-immune or Malaria-naïve: 72% (Taylor)
P. falciparum [2]; semi-immune (Anderson)
  Protective Efficacy (%) Relative to Placebo, Pf/Semi-Immune: 83% (Anderson)

## COc1cc(C)c2c(Oc3cccc(C(F)(F)F)c3)c(OC)cc(NC(C)CCCN)c2n1 (stereo not shown) [tafenoquine, N(4)-[2,6-Dimethoxy-4-methyl-5-[3-(trifluoromethyl)phenoxy]quinolin-8-yl]pentane-1,4-diamine]
B. rodhaini; Balb/c (immunocompetent) mice, single dose of 20 mg/kg
  parasitemia: cleared parasitemia
B. rodhaini; Balb/c (immunocompetent) mice, single dose of 20 mg/kg, infection uniformly lethal in untreated animals
  survival: 100%
B. rodhaini; [7]
  death: delayed not prevent
  parasitemia and relapses: cleared initial parasitemia but did not prevent relapses
B. rodhaini; mice, single dose of 20 mg/kg
  vacuole formation in B. rodhaini blood stages: induces the formation of large vacuoles
B. rodhaini; mice, single dose treatment
  antioxidant enzymes in B. rodhaini: upregulated
B. rodhaini; one and three doses, immunocompromised mice and dogs
  clearance and cure of Babesia: sufficient to clear and cure Babesia
[3]
  specific adverse events with increased risk: gastrointestinal effects [mild to moderate] and cornea verticillata
Plasmodium vivax; monotherapy
  day by which all patients cleared blood stage parasites: ≤ 8 days
Plasmodium vivax; patients for whom data was available
  relapses during the follow up period: no relapses
Plasmodium falciparum
  subjects who developed blood stage parasitemia: none
Trypanosoma brucei
  potency of killing: < 4 µM
Leishmania major
  potency of killing: < 4 µM
[4]
  activity against free-living bacteria: much less active against free-living gram-negative bacteria than free-living gram-positive bacteria
P. falciparum [5]
  activity against the blood stages of P. falciparum: quite effective
B. microti
  outcome of treatment in the patient: cured

## COc1cc(NC(C)CCCN)c2ncccc2c1 (stereo not shown) [primaquine]
[6]
  time until gametocytes non-infectious to mosquitoes at a level statistically lower than reference values: two days post-dosing
